Entries after “also recorded” stand apart in the source; their conditions may differ. Blank lines part the entries; values can stand above or below the compound they belong to.
Key:
[1] = tested on: adenosine deaminase; experiment: Conversion by purified adenosine deaminase; details: pH 7.4, 25 °C; for Conversion to AZG by adenosine deaminase: 0.2 units per mL enzyme, 120 min, 50 μM nucleoside
[2] = tested on: PBM cells; experiment: Cytotoxicity in PBM cells; format: cell-based; details: human
[3] = cited from earlier work
[4] = tested on: PBM cells; experiment: Intracellular metabolism in PBM cells; format: in vitro ADME, human; details: 50 μM for 4 h at 37 °C, LC/MS/MS
[5] = in vitro; format: cell-based; details: human, CEM cells (T-cell-derived cell line)
[6] = Cytotoxicity in Vero cells; format: cell-based, African green monkey; details: African green monkey, Vero cells (kidney epithelial cells)
[7] = tested on: CEM cells; experiment: in vitro; format: cell-based; details: CEM cells
[8] = tested on: Vero cells; experiment: Cytotoxicity in Vero cells; format: cell-based, African green monkey; details: Vero cells
[9] = tested on: HIV-1LAI; experiment: Anti-HIV activity against HIV-1LAI in human PBM cells; format: cell-based
[10] = tested on: PBM, CEM, and Vero cells; experiment: Cytotoxicity in PBM, CEM and Vero cells; format: cell-based

Structure (SMILES): Nc1ncnc2c1ncn2[C@H]1C[C@H](O)[C@@H](CO)O1 [2′-Deoxyadenosine, reference compound]
Deaminated to 2′-deoxyinosine ([1]; 7 min with 0.002 units of enzyme, 50 μM, positive control): 59%

Structure (SMILES): Cc1cn([C@H]2C[C@H](N=[N+]=[N-])[C@@H](CO)O2)c(=O)[nH]c1=O [AZT, 3′-Azido-3′-deoxythymidine]
IC50 [2]: > 100 µM | Bone marrow toxicity, share of the patients [3]: about 5%

Structure (SMILES): [N-]=[N+]=N[C@H]1C[C@H](n2cnc3c(N)nc(N)nc32)O[C@@H]1CO [Compound 12]
Conversion to AZG-TP in PBM cells [4]: converted to AZG-TP | Conversion to AZG by adenosine deaminase [1]: substantially or completely converted to AZG; also recorded: substantially converted to AZG

Structure (SMILES): COc1nc(N)nc2c1ncn2[C@H]1C[C@H](N=[N+]=[N-])[C@@H](CO)O1 [Compound 17]
Conversion to AZG-TP in PBM cells [4]: converted to AZG-TP | Detection of the nucleoside analog in the triphosphate (TP) form [4]: unable to detect | Conversion to AZG by adenosine deaminase [1]: substantially or completely converted to AZG

Structure (SMILES): CN(C)c1nc(N)nc2c1ncn2[C@H]1C[C@H](N=[N+]=[N-])[C@@H](CO)O1 [Compound 18]
IC50 [5]: > 100 µM | IC50 [6]: > 100 µM | Conversion to AZG-TP in PBM cells [4]: converted to AZG-TP | Detection of the nucleoside analog in the triphosphate (TP) form [4]: unable to detect | Conversion to AZG by adenosine deaminase [1]: resistant to adenosine deaminase

Structure (SMILES): [N-]=[N+]=N[C@H]1C[C@H](n2cnc3c(NC4CC4)nc(N)nc32)O[C@@H]1CO [Compound 19]
IC50 [5]: > 100 µM | IC50 [6]: > 100 µM | Conversion to AZG-TP in PBM cells [4]: converted to AZG-TP | Detection of the nucleoside analog in the triphosphate (TP) form [4]: unable to detect | Conversion to AZG by adenosine deaminase [1]: substantially or completely converted to AZG

Structure (SMILES): C=CCN(C)c1nc(N)nc2c1ncn2[C@H]1C[C@H](N=[N+]=[N-])[C@@H](CO)O1 [Compound 21]
Toxicity in CEM cells [7]: increased toxicity | Toxicity in Vero cells [8]: increased toxicity

Structure (SMILES): C#CCNc1nc(N)nc2c1ncn2[C@H]1C[C@H](N=[N+]=[N-])[C@@H](CO)O1 [Compound 22]
Anti-HIV activity [9]: significantly less active | Cytotoxicity [10]: no toxicity

Structure (SMILES): CC(C)(CO)Nc1nc(N)nc2c1ncn2[C@H]1C[C@H](N=[N+]=[N-])[C@@H](CO)O1 [Compound 24]
IC50 [5]: > 100 µM | IC50 [6]: > 100 µM

Structure (SMILES): [N-]=[N+]=N[C@H]1C[C@H](n2cnc3c(N)nc(Cl)nc32)O[C@@H]1CO [Compound 31]
IC50 [5]: > 100 µM | IC50 [6]: > 100 µM

Structure (SMILES): [N-]=[N+]=N[C@H]1C[C@H](n2cnc3c(NC4CC4)nc(Cl)nc32)O[C@@H]1CO [Compound 33]
IC50 [5]: > 100 µM | IC50 [6]: > 100 µM

Structure (SMILES): [N-]=[N+]=N[C@H]1C[C@H](n2cnc3c(N)nc(F)nc32)O[C@@H]1CO [Compound 35]
Cytotoxicity [10]: increase in cytotoxicity

Structure (SMILES): COc1nc(F)nc2c1ncn2[C@H]1C[C@H](N=[N+]=[N-])[C@@H](CO)O1 [Compound 36]
IC50 [5]: > 100 µM | IC50 [6]: > 100 µM

Structure (SMILES): [N-]=[N+]=N[C@H]1C[C@H](n2cnc3c(Cl)nc(F)nc32)O[C@@H]1CO [Compound 37]
Cytotoxicity [10]: increase in cytotoxicity

Structure (SMILES): COc1nc(OC)c2ncn([C@H]3C[C@H](N=[N+]=[N-])[C@@H](CO)O3)c2n1 [Compound 39]
IC50 [5]: > 100 µM | IC50 [6]: > 100 µM | No cytotoxicity up to [10]: > 100 µM

More lines, main results first:

Conversion to AZG-TP in PBM cells [4]: converted to AZG-TP | Detection of the nucleoside analog in the triphosphate (TP) form [4]: unable to detect
Structure (SMILES): [N-]=[N+]=N[C@H]1C[C@H](n2cnc3c(Cl)nc(N)nc32)O[C@@H]1CO [Compound 10]
Conversion to AZG by adenosine deaminase [1]: substantially or completely converted to AZG

Conversion to AZG-TP in PBM cells [4]: converted to AZG-TP | Detection of the nucleoside analog in the triphosphate (TP) form [4]: unable to detect
Structure (SMILES): C=CCNc1nc(N)nc2c1ncn2[C@H]1C[C@H](N=[N+]=[N-])[C@@H](CO)O1 [Compound 20]
Conversion to AZG by adenosine deaminase [1]: substantially or completely converted to AZG

IC50 [5]: > 100 µM
Structure (SMILES): [N-]=[N+]=N[C@H]1C[C@H](n2cnc3c(NCCO)nc(N)nc32)O[C@@H]1CO [Compound 26]
IC50 [6]: > 100 µM

IC50 [5]: > 100 µM
Structure (SMILES): COc1nc(Cl)nc2c1ncn2[C@H]1C[C@H](N=[N+]=[N-])[C@@H](CO)O1 [Compound 30]
IC50 [6]: > 100 µM

IC50 [5]: > 100 µM
Structure (SMILES): CN(C)c1nc(Cl)nc2c1ncn2[C@H]1C[C@H](N=[N+]=[N-])[C@@H](CO)O1 [Compound 34]
IC50 [6]: > 100 µM

IC50 [5]: > 100 µM
Structure (SMILES): COc1nc(N)c2ncn([C@H]3C[C@H](N=[N+]=[N-])[C@@H](CO)O3)c2n1 [Compound 38]
IC50 [6]: > 100 µM

IC50 [5]: > 100 µM
Structure (SMILES): COc1nc(NC2CC2)c2ncn([C@H]3C[C@H](N=[N+]=[N-])[C@@H](CO)O3)c2n1 [Compound 40]
IC50 [6]: > 100 µM

Source: publication PMC3089953 (Bioorganic & medicinal chemistry letters, 2009)
